Laboratory results taken from ChEMBL document CHEMBL1212816, “Proanthocyanidins from the leaves of Machilus philippinensis” (J Nat Prod, 2010).

Assay: Inhibition of Bacillus stearothermophilus alpha glucosidase-4
Design: species or system Geobacillus stearothermophilus

Row | IC50 | SMILES
1 | 0.049 µM | C[C@H]1O[C@H](O[C@H]2[C@H](O)[C@@H](O)[C@@H](O[C@H]3[C@H](O)[C@@H](O)C(O)O[C@@H]3CO)O[C@@H]2CO)[C@H](O)[C@@H](O)[C@@H]1N[C@H]1C=C(CO)[C@@H](O)[C@H](O)[C@H]1O (some centres undefined) [ACARBOSE]
2 | 31.3 µM | Oc1cc(O)c2c(c1)O[C@H](c1ccc(O)c(O)c1)[C@H](O)[C@H]2c1c(O)cc(O)c2c1O[C@H](c1ccc(O)c(O)c1)[C@H](O)[C@H]2c1c(O)c2c(c3c1O[C@]1(c4ccc(O)c(O)c4)Oc4cc(O)cc(O)c4[C@H]3[C@H]1O)O[C@H](c1ccc(O)c(O)c1)[C@H](O)[C@H]2c1c(O)cc(O)c2c1O[C@H](c1ccc(O)c(O)c1)[C@H](O)C2
3 | 92.9 µM | Oc1cc(O)c2c(c1)O[C@@]1(c3ccc(O)c(O)c3)Oc3cc(O)c4c(c3[C@@H]2[C@H]1O)O[C@H](c1ccc(O)c(O)c1)[C@H](O)[C@H]4c1c(O)cc(O)c2c1O[C@H](c1ccc(O)c(O)c1)[C@@H](O)C2 [CINNAMTANNIN D1]
4 | 3.5 µM | Oc1cc(O)c2c(c1)O[C@@]1(c3ccc(O)c(O)c3)Oc3cc(O)c4c(c3[C@@H]2[C@H]1O)O[C@@H](c1ccc(O)c(O)c1)[C@H](O)[C@H]4c1c(O)cc(O)c2c1O[C@H](c1ccc(O)c(O)c1)[C@H](O)C2 [AESCULTITANNIN B]
5 | > 100 µM | Oc1cc(O)c2c(c1)O[C@H](c1ccc(O)c(O)c1)[C@H](O)C2 [(-)-EPICATECHIN]
6 | 18.4 µM | Oc1cc(O)c2c(c1)O[C@H](c1ccc(O)c(O)c1)[C@H](O)[C@H]2c1c(O)cc(O)c2c1O[C@H](c1ccc(O)c(O)c1)[C@H](O)[C@H]2c1c(O)cc(O)c2c1O[C@H](c1ccc(O)c(O)c1)[C@H](O)[C@H]2c1c(O)c2c(c3c1O[C@]1(c4ccc(O)c(O)c4)Oc4cc(O)cc(O)c4[C@H]3[C@H]1O)O[C@H](c1ccc(O)c(O)c1)[C@H](O)[C@H]2c1c(O)cc(O)c2c1O[C@H](c1ccc(O)c(O)c1)[C@H](O)C2
7 | 10.5 µM | Oc1cc(O)c2c(c1)O[C@H](c1ccc(O)c(O)c1)[C@H](O)[C@H]2c1c(O)cc2c(c1O)[C@@H]1c3c(cc(O)c4c3O[C@H](c3ccc(O)c(O)c3)[C@H](O)[C@H]4c3c(O)cc(O)c4c3O[C@H](c3ccc(O)c(O)c3)[C@H](O)C4)O[C@](c3ccc(O)c(O)c3)(O2)[C@@H]1O
8 | > 100 µM | Oc1cc(O)c2c(c1)O[C@H](c1ccc(O)c(O)c1)[C@H](O)[C@H]2c1c(O)c2c(c3c1O[C@]1(c4ccc(O)c(O)c4)Oc4cc(O)cc(O)c4[C@H]3[C@H]1O)O[C@H](c1ccc(O)c(O)c1)[C@H](O)[C@H]2c1c(O)cc(O)c2c1O[C@H](c1ccc(O)c(O)c1)[C@H](O)C2
9 | > 100 µM | Oc1cc(O)c2c(c1)O[C@@]1(c3ccc(O)c(O)c3)Oc3cc(O)c4c(c3[C@@H]2[C@H]1O)O[C@H](c1ccc(O)c(O)c1)[C@H](O)[C@H]4c1c(O)cc(O)c2c1O[C@H](c1ccc(O)c(O)c1)[C@H](O)C2 [CINNAMTANNIN B1]
